Measured values taken from US20100278875A1, “PROSTAGLANDIN E2 (PGE2) AS AN ADJUVANT IN MONOCLONAL ANTIBODY GENERATION” (priority 2006, published 2010).

Key:
[1] = tested on: ovalbumin (OVA); experiment: Anti-OVA antibody titers in Balb/c mice immunized with OVA in the presence or absence of PGE2; assay type: in vivo
Experimental: (§1) To generate antibody against ovalbumin (OVA), Balb/c mice were immunized with 25 ug of OVA emulsified in adjuvant. To test the effect of PGE2, the mice were injected with 1 nmol PGE2 intraperitoneally (i.p.) 3 hours prior to immunization, and again at 24 and 48 hours post immunization. For the control group, the mice were injected (i.p.) with an equal volume of PBS 3 hours prior to immunization. The mice were boosted with 25 ug OVA on Day 14 (i.p.) and Day 28 (subcutaneously). Anti-OVA titers were determined on Day 27 and Day 35.
(§2) To assess the effect of PGE2 on generating antibodies against difficult targets, a nominal immunogen (AgX) known to be difficult to raise an antibody response was used. Briefly, Balb/c mice were immunized following the same schedule outlined above with either 25 ug of OVA or AgX and titered on Day 27 following 2 i.p. injections. […] Therefore, PGE2 enhances immune responses in Balb/c mice and may be used to shorten immunization time lines.

[2] = tested on: nominal immunogen (AgX); experiment: Antibody titers in Balb/c mice against a nominal immunogen (AgX) in the presence or absence of PGE2; assay type: in vivo; conditions: following 2 injections, versus PBS
Experimental: as §1, §2
Given the difficult nature of this immunogen to generate antibodies against, this is a significant increase. Therefore, PGE2 can be used in Balb/c mice to enhance immune responses not only to strong immunogens, but also to difficult/nominal immunogens.

CCCCC[C@H](O)/C=C/[C@H]1[C@H](O)CC(=O)[C@@H]1C/C=C\CCCC(=O)O [PGE2, Prostaglandin E2] was tested, and the “effect on anti-OVA titers (in words)” value ([1]; Table 1 experiment, Day 27 and Day 35) was “significantly enhanced anti-OVA titers”, the “effect on anti-OVA titers (in words)” value ([1]; Table 2 experiment, following only 2 immunogen injections) was “enhanced anti-OVA titers” and the “increase of anti-AgX titers” value [2] was 2-3 fold.
